Assay results published in patent publication US20180071317A1, “USE OF AGENTS THAT ALTER THE PERITUMORAL ENVIRONMENT FOR THE TREATMENT OF CANCER” (SERVICIO ANDALUZ DE SALUD, priority 2011, published 2018).

How the values were obtained:
[1] = tested on: fibroblasts (PHF) co-cultured with tumor cells, ovarian carcinoma (EFO-27); experiment: Marker expression (IHC) in PHF co-cultured with EFO-27 tumor cells; type: cell-based, human; conditions: co-culture with EFO-27; SP 1 μM; 48 h;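 also: values are the percentage of PHF fibroblasts positive for each marker, cultured in fresh plasma from a healthy human donor, each experiment run in six replicates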
Experimental: (§1) All cultures were maintained 48 hours, following which the same cells were included in paraffin blocks for subsequent analysis of the expression of different markers by immunohistochemistry (see Example 1). […] All experiments were carried out sixfold. Analyzed markers in fibroblast cells (stromal cells) were: TGF-α, TGF-β1, TGF-β2, TGF-β3, SPARC, MMP-3, MMP-7, MMP-9, MMP-11, MMP-13 and MMP-14.

[2] = tested on: fibroblasts (PHF) co-cultured with tumor cells of lung carcinoma (A-427); experiment: Marker expression (IHC) in PHF co-cultured with A-427 tumor cells; type: cell-based, human; conditions: co-culture with A-427 lung carcinoma; SP 1 μM; 48 h;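 also: cultures grown in human blood plasma from a healthy donor, value is the percentage of fibroblasts positive for each marker, six replicates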
Experimental: as §1

[3] = tested on: fibroblasts (PHF) co-cultured with human fibrosarcoma tumor cells (HT-1080); experiment: Marker expression (IHC) in PHF co-cultured with HT-1080 tumor cells; type: cell-based; conditions: co-culture with HT-1080; SP 1 μM; 48 h;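 also: cultures grown in fresh human plasma from a healthy donor, six replicates, value is percent of fibroblasts positive for the marker, compared with fibroblasts cultured without tumor cells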
Experimental: as §1

[4] = tested on: fibroblasts (PHF) co-cultured with tumor cells of human Burkitt lymphoma (CA-46); experiment: Marker expression (IHC) in PHF co-cultured with CA-46 tumor cells; type: cell-based; conditions: PHF co-cultured with CA-46 + SP;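 also: percentage of PHF fibroblasts positive for each marker, cultures grown in fresh human plasma from a healthy donor, six replicates, compared with fibroblasts cultured alone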
Experimental: All cultures were maintained 48 hours, following which the same cells were included in paraffin blocks for subsequent analysis of the expression of different markers by immunohistochemistry (see Example 1). The primary antibodies used to perform immunohistochemical assays and their concentration are detailed in Example 2. All experiments were carried out sixfold. Analyzed markers in fibroblast cells (stromal cells) were: TGF-α, TGF-β1, TGF-β2, TGF-β3, SPARC, MMP-3, MMP-7, MMP-9, MMP-11, MMP-13 and MMP-14.

[5] = tested on: co-cultures of tumor cells-endothelial cells (C-12210); experiment: Inhibition/survival in co-cultures of primary human tumor cells and endothelial cells; type: cell-based; conditions: survival in reference to control, SP 1 μM
Experimental: To check that the interaction of primary tumor cells extracted directly from human with human vascular endothelial cells, promotes the survival of both cell types, co-cultures were performed microvascular endothelial cells from juvenile foreskins (PromoCell GmbH, Sickingenstraβe 63/65, D-69126 Heidelberg, Germany; reference C-12210) with tumor cells obtained directly from primary human tumors.
A total of 6 wells containing tumor cells were used as control for survival. Another 6 wells containing tumor cells were cultured with addition of endothelial cells.
Subsequently, cells were embedded in paraffin for analysis by immunohistochemistry. In order to identify the different cell types and quantity of them [They were labelled with primary antibodies specific for human endothelial cells (anti-CD31), carcinoma cells (Anti-Cytokeratins Spread Spectrum), glioma (Anti-glial fibrillary acidic protein), fibrosarcoma and malignant fibrous histiocytoma (Anti-Smooth Muscle Actin), Ewing sarcoma (Anti-CD99), Melanoma (Anti-HMB45), leukemias and lymphomas (Anti-Common Antigen Leucitario) and myeloma (anti CD 138). All antibodies are distributed by Dako and were used at the same concentration which is supplied (supplied pre-diluted—“ready to use”).

[6] = Carcinoma of lung, (Small cell carcinoma in Table 36)
[7] = Carcinoma of lung, Non Small Cell Carcinoma in Table 36
[8] = Carcinoma of thyroid, (Follicular Carcinoma in Table 36)
[9] = Carcinoma of thyroid, (Papillary Carcinoma in Table 36)

## CSCC[C@H](NC(=O)[C@H](CC(C)C)NC(=O)CNC(=O)[C@H](Cc1ccccc1)NC(=O)[C@H](Cc1ccccc1)NC(=O)[C@H](CCC(N)=O)NC(=O)[C@H](CCC(N)=O)NC(=O)[C@@H]1CCCN1C(=O)[C@H](CCCCN)NC(=O)[C@@H]1CCCN1C(=O)[C@@H](N)CCCNC(=N)N)C(N)=O [SP]
[1]
  PHF cells expressing MMP-3: 44.4 ± 1.5%
  PHF cells expressing MMP-7: 55.1 ± 2.6%
  PHF cells expressing MMP-9: 56.6 ± 1.7%
  PHF cells expressing MMP-11: 22.4 ± 2.6%
  PHF cells expressing MMP-13: 55 ± 2.5%
  PHF cells expressing MMP-14: 46.2 ± 2.5%
  PHF cells expressing SPARC: 46 ± 2.2%
  PHF cells expressing TGF-α: 37.2 ± 2.1%
  PHF cells expressing TGF-β1: 35.5 ± 2.1%
  PHF cells expressing TGF-β2: 45.4 ± 1.2%
  PHF cells expressing TGF-β3: 42 ± 1.6%
[2]
  PHF cells expressing MMP-3: 45.5 ± 1.6%
  PHF cells expressing MMP-7: 54.3 ± 2.2%
  PHF cells expressing MMP-9: 55.5 ± 2.4%
  PHF cells expressing MMP-11: 25.5 ± 1.8%
  PHF cells expressing MMP-13: 44.3 ± 2.5%
  PHF cells expressing MMP-14: 45.1 ± 3.5%
  PHF cells expressing SPARC: 47 ± 1.2%
  PHF cells expressing TGF-α: 42.3 ± 2.1%
  PHF cells expressing TGF-β1: 33.4 ± 2.1%
  PHF cells expressing TGF-β2: 40.9 ± 2.1%
  PHF cells expressing TGF-β3: 51.4 ± 1.6%
[3]
  PHF cells expressing MMP-3: 43.4 ± 2.8%
  PHF cells expressing MMP-7: 57.1 ± 3.8%
  PHF cells expressing MMP-9: 52.3 ± 2.4%
  PHF cells expressing MMP-11: 27.5 ± 3.8%
  PHF cells expressing MMP-13: 45.4 ± 3.6%
  PHF cells expressing MMP-14: 49.3 ± 3.5%
  PHF cells expressing SPARC: 51.2 ± 3.3%
  PHF cells expressing TGF-α: 42.5 ± 3.1%
  PHF cells expressing TGF-β1: 33.6 ± 3.1%
  PHF cells expressing TGF-β2: 40.7 ± 2.1%
  PHF cells expressing TGF-β3: 51 ± 1.6%
[4]
  cells expressing MMP-3: 63.4 ± 4.3%
  cells expressing MMP-7: 66.1 ± 3.8%
  cells expressing MMP-9: 72.3 ± 4.4%
  cells expressing MMP-11: 67.4 ± 5.8%
  cells expressing MMP-13: 55 ± 6.4%
  cells expressing MMP-14: 59.1 ± 6.3%
  cells expressing SPARC: 77 ± 4.2%
  cells expressing TGF-α: 61.4 ± 5.1%
  cells expressing TGF-β1: 63.4 ± 4.1%
  cells expressing TGF-β2: 60.5 ± 5.1%
  cells expressing TGF-β3: 71 ± 4.56%
[5]; Carcinoma of Colon
  Endothelial cells co-cultured with tumor cells + SP: 243 ± 4%
  Tumor cells co-cultured with endothelial cells + SP: 253 ± 4%
[5]; Carcinoma of Pancreas
  Endothelial cells co-cultured with tumor cells + SP: 287 ± 3%
  Tumor cells co-cultured with endothelial cells + SP: 252 ± 4%
[5]; Carcinoma of breast
  Endothelial cells co-cultured with tumor cells + SP: 281 ± 4%
  Tumor cells co-cultured with endothelial cells + SP: 253 ± 5%
[5]; Carcinoma of cervix
  Endothelial cells co-cultured with tumor cells + SP: 292 ± 4%
  Tumor cells co-cultured with endothelial cells + SP: 260 ± 4%
[5]; Carcinoma of endometrial
  Endothelial cells co-cultured with tumor cells + SP: 283 ± 5%
  Tumor cells co-cultured with endothelial cells + SP: 252 ± 3%
[5]; [6]
  Endothelial cells co-cultured with tumor cells + SP: 294 ± 2%
  Tumor cells co-cultured with endothelial cells + SP: 264 ± 3%
[5]; [7]
  Endothelial cells co-cultured with tumor cells + SP: 274 ± 5%
  Tumor cells co-cultured with endothelial cells + SP: 245 ± 6%
[5]; Carcinoma of ovarian
  Endothelial cells co-cultured with tumor cells + SP: 282 ± 4%
  Tumor cells co-cultured with endothelial cells + SP: 254 ± 4%
[5]; Carcinoma of prostate
  Endothelial cells co-cultured with tumor cells + SP: 270 ± 4%
  Tumor cells co-cultured with endothelial cells + SP: 269 ± 1%
[5]; Carcinoma of stomach
  Endothelial cells co-cultured with tumor cells + SP: 251 ± 3%
  Tumor cells co-cultured with endothelial cells + SP: 260 ± 4%
[5]; [8]
  Endothelial cells co-cultured with tumor cells + SP: 260 ± 5%
  Tumor cells co-cultured with endothelial cells + SP: 240 ± 6%
[5]; [9]
  Endothelial cells co-cultured with tumor cells + SP: 265 ± 2%
  Tumor cells co-cultured with endothelial cells + SP: 230 ± 4%
[5]; Fibrosarcoma
  Endothelial cells co-cultured with tumor cells + SP: 249 ± 5%
  Tumor cells co-cultured with endothelial cells + SP: 257 ± 3%
[5]; Glioma
  Endothelial cells co-cultured with tumor cells + SP: 238 ± 6%
  Tumor cells co-cultured with endothelial cells + SP: 247 ± 5%
[5]; Hodgkin's Lymphoma
  Endothelial cells co-cultured with tumor cells + SP: 248 ± 5%
  Tumor cells co-cultured with endothelial cells + SP: 265 ± 4%
[5]; Leukemia B
  Endothelial cells co-cultured with tumor cells + SP: 278 ± 4%
  Tumor cells co-cultured with endothelial cells + SP: 265 ± 6%
[5]; Leukemia T
  Endothelial cells co-cultured with tumor cells + SP: 276 ± 4%
  Tumor cells co-cultured with endothelial cells + SP: 256 ± 6%
[5]; Malignant fibrous histiocytoma
  Endothelial cells co-cultured with tumor cells + SP: 246 ± 4%
  Tumor cells co-cultured with endothelial cells + SP: 245 ± 3%
[5]; Melanoma
  Endothelial cells co-cultured with tumor cells + SP: 267 ± 4%
  Tumor cells co-cultured with endothelial cells + SP: 245 ± 2%
[5]; Myeloma
  Endothelial cells co-cultured with tumor cells + SP: 267 ± 2%
  Tumor cells co-cultured with endothelial cells + SP: 232 ± 3%
[5]; Neuroblastoma
  Endothelial cells co-cultured with tumor cells + SP: 258 ± 3%
  Tumor cells co-cultured with endothelial cells + SP: 256 ± 5%
[5]; Non-Hodgkin's Lymphoma B
  Endothelial cells co-cultured with tumor cells + SP: 254 ± 7%
  Tumor cells co-cultured with endothelial cells + SP: 267 ± 5%
[5]; Non-Hodgkin's Lymphoma T
  Endothelial cells co-cultured with tumor cells + SP: 256 ± 4%
  Tumor cells co-cultured with endothelial cells + SP: 276 ± 4%
[5]; Renal carcinoma
  Endothelial cells co-cultured with tumor cells + SP: 282 ± 4%
  Tumor cells co-cultured with endothelial cells + SP: 260 ± 4%
[5]; Sarcoma of Ewing
  Endothelial cells co-cultured with tumor cells + SP: 234 ± 5%
  Tumor cells co-cultured with endothelial cells + SP: 236 ± 4%
